Tests used:
C2C12 cells [1] = assay: Real-time qRT-PCR analysis of C2C12 myoblasts (TGF-β1 stimulation, halofuginone treatment); assay type: cell-based, mouse; conditions: low (5 ng/ml) or high (10 ng/ml) concentration halofuginone, 24 h (FIG. 4a)
Experimental: Specifically, C2C12 cells (CRL-1772) were purchased from the American Type Culture Collection (ATCC) and maintained in DMEM medium (Welgene) containing 10% (v/v) fetal bovine serum (FBS; Gibco) and 1% penicillin-streptomycin (P/S; Gibco) at 37° C. under 5% CO2 conditions. The C2C12 cells were seeded in 6-well plates at a density of 3×10^5 cells per well and allowed to adhere for 24 hours. Subsequently, the medium was replaced with serum-free medium after 24 hours, followed by stimulation with 5 ng/ml rhTGF-β1 (recombinant human TGF-β1; R&D Systems). After stimulation, the cells were treated with various concentrations (0 [control], or 1, 2.5, 5 [low dose], 10 [high dose], 20, 50, 100 ng/ml) of halofuginone (Sigma) in serum-free medium for 24 hours.
Specifically, total RNA was isolated from C2C12 cells in Example 1, fibroblasts in Example 5, and the lumbar spinal cord of mice in Example 6 using the FavorPrep™ Tri-RNA Reagent (Favorgen). The lumbar spinal cord was isolated from the mouse in Example 6 and stored frozen at −80° C. until the experiment. The concentration of total RNA was measured at 260 nm absorbance using a spectrophotometer (NanoDrop Spectrophotometer ND-2000, Thermo Scientific). cDNA was synthesized from 1 μg of total RNA using the ReverTra Ace-α™ (Toyobo) according to the manufacturers protocol. Quantitative RT-PCR was performed using the SYBR Green ExcelTaq™ 2× Fast Q-PCR Master Mix (TQ1200, Smobio) on a thermocycler (CFX Connect Real-Time PCR Detection System, BIO-RAD) with the primers listed in Table 3 below. Fluorescence data were analyzed with Bio-Rad CFX Manager 3.1 software, and control versus relative mRNA expression was calculated by the 2AT) method. Experiments were performed four times on all samples. All primers were designed using Primer3 online software, and GAPDH was used as a control group.
Specifically, after treating C2C12 cells with TGF-β1 for 24 hours as in Example 1, real-time qRT-PCR was performed in the same manner as in Example 11 to confirm TGF-β1, 2 and 3, α-SMA and MyoD mRNA expression (FIG. 2a), and Western blot analysis was performed in the same manner as in Example 12 to confirm autocrine expression of TGF-β1 and MyoD protein and α-SMA (FIG. 2b).
Specifically, as in Example 1, C2C12 cells were stimulated with TGF-β1 for 24 hours, and then halofuginone was treated for 24 hours, and real-time qRT-PCR was performed in the same manner as in Example 11 to confirm TGF-β1, α-SMA, MyoD, and collagen I (Col-I) mRNA expression (FIG. 4a). In addition, Western blot analysis was performed in the same manner as in Example 12 to confirm TGF-β1, α-SMA, MyoD, and collagen I protein expression (FIG. 4b). In addition, immunocytochemical analysis was performed in the same manner as in Example 3 to confirm α-SMA and MyoD expression (FIG. 4c).

C2C12 cells [2] = assay: Immunocytochemical analysis of TGF-β1-stimulated C2C12 myoblasts; assay type: cell-based, mouse; conditions: low or high concentration halofuginone after TGF-β1 stimulation (FIG. 4c)
Experimental: Specifically, C2C12 cells were plated in 6-well plates with coverslips and stimulated with rhTGF-β1 in serum-free medium. After 24 hours of stimulation, the cells were treated with low or high concentrations of halofuginone in serum-free medium for 24 hours. The cells were washed three times with PBS and fixed in 4% paraformaldehyde at room temperature for 15 minutes. The fixed cells were then washed three times with PBS and treated with 0.5% Triton X-100 for 5 minutes. Subsequently, they were blocked with 5% bovine serum albumin in 0.3% PBS-T for 1 hour at room temperature. The cells were incubated with anti-α-SMA antibody (1:200; abcam cat #ab7817) and anti-MyoD antibody (1:200; Santa Cruz, cat #sc377460) in blocking buffer at 4° C. for 24 hours. After washing three times with PBS, the cells were incubated with Alexa Fluor secondary antibodies at room temperature for 1 hour. Nuclear DNA was stained with DAPI (4,6-diamino-2-phenylindole, 1:1,000; Sigma), washed twice with PBS, and coverslips were mounted on glass slides using a Dako fluorescence mounting medium (Dako). […] In addition, it was quantified in a blind manner using Leica Application Suite X software (Leica Microsystems). […]

[3] = tested on: G93A mutant SOD1 transgenic mice; assay: Range of motion (ROM) of the knee joint in ALS animal model; assay type: in vivo, mouse; conditions: 120 days old; compared to DMSO Non-TG group (DMSO TG significantly reduced)
Experimental: As a control group, non-transgenic mice were injected intraperitoneally (i.p.) with vehicle (DMSO) in the same manner for the same period of time. Specifically, anatomical indicators were used to determine the knee extension angle. Manual knee joint ROM was measured at the end of disease age (120 days) using Random Two-line, a 2D angle analysis system. The mice of Example 6 were anesthetized with 1% isoflurane inhalation, followed by placing them on an acrylic plate and shaving the skin on their hind legs. The femur was fixed to the plate and a constant force extension moment was applied to the knee joint per mouse. Subsequently, markers were attached to greater trochanter, epicondyle of the knee, and lateral malleolus to obtain markers on the imaging. The angle between the axis of the femur (the greater trochanter to the lateral joint space of the knee) and the fibula (the lateral joint space of the knee to the lateral malleolus) was measured as the knee extension ROM. Sixteen mice in each group were analyzed, and the knees of non-transgenic mice injected with DMSO in the group on day 120 were used as controls. Specifically, halofuginone was administered to G93A mutant SOD1 mice in the same manner as described in Example 6, and ROM measurement of the knee joint was performed in the same manner as described in Example 10 (FIG. 8a). […]

**Q.** O=C(C[C@H]1NCCC[C@@H]1O)Cn1cnc2cc(Br)c(Cl)cc2c1=O (racemic) [halofuginone] was tested. Which “decrease in MyoD mRNA level by TGF-β1 stimulation” value (C2C12 cells [1]) did it give?
**A.** significantly recovered

**Q.** And the “increase in TGF-β1 mRNA level by TGF-β1 stimulation” value (C2C12 cells [1])?
**A.** significantly reduced

**Q.** What about the “increase in collagen I mRNA level by TGF-β1 stimulation” value (C2C12 cells [1]) of the same molecule?
**A.** significantly reduced

**Q.** And the “increase in α-SMA mRNA level by TGF-β1 stimulation” value (C2C12 cells [1])?
**A.** significantly reduced

**Q.** And the “intensity of MyoD (immunofluorescence)” value (C2C12 cells [2])?
**A.** recovery

**Q.** And the “intensity of α-SMA (immunofluorescence)” value (C2C12 cells [2])?
**A.** reduction

**Q.** And the “range of motion (ROM) of the knee joint” value [3]?
**A.** not changed

From patent publication US20240390377A1, “COMPOSITION FOR THE PREVENTION OR TREATMENT OF NEURODEGENERATIVE OR MOTOR NEURON DISEASES COMPRISING HALOFUGINONE AS AN ACTIVE INGREDIENT” (CURAMYS CO., LTD., priority 2022, published 2024)
